Laboratory results published in the supplement of paper PMC11208160.

Experiment: recombinant barcode read abundance after kanamycin selection (control-corrected) (log10(CPM+1)); higher = more efficient recombination; sequences stand for … in AGTGCAGAGAAAATCGGCCAGTTTTCTCTGCCTGCAGTCCGCATGCCGT…ATTTATGCAGCGGACTGCCTTTCTCCCAAAGTGATAAACCGGACAGTATCATGGACCGGTTTTCCCGGTAATCCGTATTTGCAAGGTTGGTTTCACT; site = the 11-nt target
Outline: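 Duplicate cultures were plated either on chloramphenicol/ampicillin LB agar, serving as control, or on chloramphenicol/ampicillin/kanamycin with 0.1 mM IPTG. These came from a pooled E. coli library co-electroporated with a donor plasmid, each member pairing a target with an IS621 bridge RNA target-binding loop. Recombination efficiency equals averaged, control-corrected counts per million of recombinant-junction barcodes. It is listed as log10(CPM+1).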

Point of comparison: “TAAGAATCTTGGGTTCTAACCTGTTGCCTTG [TAAGAATCTAG_LTGcore_CT_RTGcore_CA] (site TAAGAATCTAG) (LTG core: CT, RTG core: CA)”, “recombinant barcode read abundance (log10)” value 0.89. Against it:
- GGGCGTGCTTGGGTTCTAACCTGTTGCCTAA [GGGCGTGCTAG_LTGcore_CT_RTGcore_TT] (site GGGCGTGCTAG) (LTG core: CT, RTG core: TT) — lower, 0.104
- GGGCGTGCTTGGGTTCTAACCTGTTGCCTAC [GGGCGTGCTAG_LTGcore_CT_RTGcore_GT] (site GGGCGTGCTAG) (LTG core: CT, RTG core: GT) — lower, 0.107
- GGGCGTGCTTGGGTTCTAACCTGTTGCCTAG [GGGCGTGCTAG_LTGcore_CT_RTGcore_CT] (site GGGCGTGCTAG) (LTG core: CT, RTG core: CT) — higher, 1.41
- GGGCGTGCTTGGGTTCTAACCTGTTGCCTAT [GGGCGTGCTAG_LTGcore_CT_RTGcore_AT] (site GGGCGTGCTAG) (LTG core: CT, RTG core: AT) — within 0.2 log units, 1.05
- GGGCGTGCTTGGGTTCTAACCTGTTGCCTGA [GGGCGTGCTAG_LTGcore_CT_RTGcore_TC] (site GGGCGTGCTAG) (LTG core: CT, RTG core: TC) — within 0.2 log units, 1.02
- GGGCGTGCTTGGGTTCTAACCTGTTGCCTGT [GGGCGTGCTAG_LTGcore_CT_RTGcore_AC] (site GGGCGTGCTAG) (LTG core: CT, RTG core: AC) — lower, 0.536
- GGGCGTGCTTGGGTTCTAACCTGTTGCCTTT [GGGCGTGCTAG_LTGcore_CT_RTGcore_AA] (site GGGCGTGCTAG) (LTG core: CT, RTG core: AA) — lower, 0.509
- GGGCGTGTCTGGGTTCTAACCTGTTGCCTGA [GGGCGTGCTAG_LTGcore_TC_RTGcore_TC] (site GGGCGTGCTAG) (LTG core: TC, RTG core: TC) — lower, 0.157
- GGGCGTGTGTGGGTTCTAACCTGTTGCCTCA [GGGCGTGCTAG_LTGcore_TG_RTGcore_TG] (site GGGCGTGCTAG) (LTG core: TG, RTG core: TG) — lower, 0.0289
- GGTGCCCACTGGGTTCTAACCTGTTGCCGAG [GGTGCCCCTCG_LTGcore_AC_RTGcore_CT] (site GGTGCCCCTCG) (LTG core: AC, RTG core: CT) — lower, 0.416
- GGTGCCCATTGGGTTCTAACCTGTTGCCGAG [GGTGCCCCTCG_LTGcore_AT_RTGcore_CT] (site GGTGCCCCTCG) (LTG core: AT, RTG core: CT) — lower, 0.111
- GGTGCCCCTTGGGTTCTAACCTGTTGCCGAA [GGTGCCCCTCG_LTGcore_CT_RTGcore_TT] (site GGTGCCCCTCG) (LTG core: CT, RTG core: TT) — lower, 0.481
- GGTGCCCCTTGGGTTCTAACCTGTTGCCGAG [GGTGCCCCTCG_LTGcore_CT_RTGcore_CT] (site GGTGCCCCTCG) (LTG core: CT, RTG core: CT) — higher, 1.46
- GGTGCCCCTTGGGTTCTAACCTGTTGCCGCA [GGTGCCCCTCG_LTGcore_CT_RTGcore_TG] (site GGTGCCCCTCG) (LTG core: CT, RTG core: TG) — lower, 0.0728
- GGTGCCCCTTGGGTTCTAACCTGTTGCCGTT [GGTGCCCCTCG_LTGcore_CT_RTGcore_AA] (site GGTGCCCCTCG) (LTG core: CT, RTG core: AA) — lower, 0.0623
- GTCGCCCACTGGGTTCTAACCTGTTGCTAGT [GTCGCCCCTTA_LTGcore_AC_RTGcore_AC] (site GTCGCCCCTTA) (LTG core: AC, RTG core: AC) — lower, 0.348
- GTCGCCCATTGGGTTCTAACCTGTTGCTAAT [GTCGCCCCTTA_LTGcore_AT_RTGcore_AT] (site GTCGCCCCTTA) (LTG core: AT, RTG core: AT) — lower, 0.182
- GTCGCCCCTTGGGTTCTAACCTGTTGCTAGT [GTCGCCCCTTA_LTGcore_CT_RTGcore_AC] (site GTCGCCCCTTA) (LTG core: CT, RTG core: AC) — lower, 0.644
- GTCGCCCCTTGGGTTCTAACCTGTTGCTATC [GTCGCCCCTTA_LTGcore_CT_RTGcore_GA] (site GTCGCCCCTTA) (LTG core: CT, RTG core: GA) — lower, 0.434
- GTCGCCCTATGGGTTCTAACCTGTTGCTAAG [GTCGCCCCTTA_LTGcore_TA_RTGcore_CT] (site GTCGCCCCTTA) (LTG core: TA, RTG core: CT) — lower, 0.0747
- GTCGCCCTGTGGGTTCTAACCTGTTGCTAAG [GTCGCCCCTTA_LTGcore_TG_RTGcore_CT] (site GTCGCCCCTTA) (LTG core: TG, RTG core: CT) — lower, 0.405
- TAAGAATACTGGGTTCTAACCTGTTGCCTAG [TAAGAATCTAG_LTGcore_AC_RTGcore_CT] (site TAAGAATCTAG) (LTG core: AC, RTG core: CT) — lower, 0.0833
- TAAGAATCCTGGGTTCTAACCTGTTGCCTGG [TAAGAATCTAG_LTGcore_CC_RTGcore_CC] (site TAAGAATCTAG) (LTG core: CC, RTG core: CC) — lower, 0.0748
- TAAGAATCGTGGGTTCTAACCTGTTGCCTAG [TAAGAATCTAG_LTGcore_CG_RTGcore_CT] (site TAAGAATCTAG) (LTG core: CG, RTG core: CT) — lower, 0.349
- TAAGAATCTTGGGTTCTAACCTGTTGCCTGG [TAAGAATCTAG_LTGcore_CT_RTGcore_CC] (site TAAGAATCTAG) (LTG core: CT, RTG core: CC) — lower, 0.39
- TAAGAATGTTGGGTTCTAACCTGTTGCCTAC [TAAGAATCTAG_LTGcore_GT_RTGcore_GT] (site TAAGAATCTAG) (LTG core: GT, RTG core: GT) — lower, 0.128
- TAAGAATGTTGGGTTCTAACCTGTTGCCTAG [TAAGAATCTAG_LTGcore_GT_RTGcore_CT] (site TAAGAATCTAG) (LTG core: GT, RTG core: CT) — lower, 0.127
- TAAGAATTATGGGTTCTAACCTGTTGCCTTA [TAAGAATCTAG_LTGcore_TA_RTGcore_TA] (site TAAGAATCTAG) (LTG core: TA, RTG core: TA) — lower, 0.111
- TAGAGGGAGTGGGTTCTAACCTGTTGCGGAG [TAGAGGGCTCC_LTGcore_AG_RTGcore_CT] (site TAGAGGGCTCC) (LTG core: AG, RTG core: CT) — lower, 0.0663
- TAGAGGGAGTGGGTTCTAACCTGTTGCGGCT [TAGAGGGCTCC_LTGcore_AG_RTGcore_AG] (site TAGAGGGCTCC) (LTG core: AG, RTG core: AG) — lower, 0.0923
- TAGAGGGCATGGGTTCTAACCTGTTGCGGAG [TAGAGGGCTCC_LTGcore_CA_RTGcore_CT] (site TAGAGGGCTCC) (LTG core: CA, RTG core: CT) — higher, 2.42
- TAGAGGGCCTGGGTTCTAACCTGTTGCGGGG [TAGAGGGCTCC_LTGcore_CC_RTGcore_CC] (site TAGAGGGCTCC) (LTG core: CC, RTG core: CC) — lower, 0.132
- TAGAGGGCGTGGGTTCTAACCTGTTGCGGCG [TAGAGGGCTCC_LTGcore_CG_RTGcore_CG] (site TAGAGGGCTCC) (LTG core: CG, RTG core: CG) — lower, 0.0165
- TAGAGGGCTTGGGTTCTAACCTGTTGCGGAA [TAGAGGGCTCC_LTGcore_CT_RTGcore_TT] (site TAGAGGGCTCC) (LTG core: CT, RTG core: TT) — within 0.2 log units, 0.746
- TAGAGGGCTTGGGTTCTAACCTGTTGCGGAC [TAGAGGGCTCC_LTGcore_CT_RTGcore_GT] (site TAGAGGGCTCC) (LTG core: CT, RTG core: GT) — higher, 1.38
- TAGAGGGCTTGGGTTCTAACCTGTTGCGGCT [TAGAGGGCTCC_LTGcore_CT_RTGcore_AG] (site TAGAGGGCTCC) (LTG core: CT, RTG core: AG) — lower, 0.623
- TAGAGGGCTTGGGTTCTAACCTGTTGCGGTG [TAGAGGGCTCC_LTGcore_CT_RTGcore_CA] (site TAGAGGGCTCC) (LTG core: CT, RTG core: CA) — lower, 0.438
- TAGAGGGGGTGGGTTCTAACCTGTTGCGGAG [TAGAGGGCTCC_LTGcore_GG_RTGcore_CT] (site TAGAGGGCTCC) (LTG core: GG, RTG core: CT) — lower, 0.0671
- TAGAGGGGGTGGGTTCTAACCTGTTGCGGCC [TAGAGGGCTCC_LTGcore_GG_RTGcore_GG] (site TAGAGGGCTCC) (LTG core: GG, RTG core: GG) — lower, 0.114
- TAGAGGGTCTGGGTTCTAACCTGTTGCGGGA [TAGAGGGCTCC_LTGcore_TC_RTGcore_TC] (site TAGAGGGCTCC) (LTG core: TC, RTG core: TC) — lower, 0.0922
- TAGAGGGTGTGGGTTCTAACCTGTTGCGGAG [TAGAGGGCTCC_LTGcore_TG_RTGcore_CT] (site TAGAGGGCTCC) (LTG core: TG, RTG core: CT) — lower, 0.173
- TAGAGGGTTTGGGTTCTAACCTGTTGCGGAA [TAGAGGGCTCC_LTGcore_TT_RTGcore_TT] (site TAGAGGGCTCC) (LTG core: TT, RTG core: TT) — lower, 0.0961
- TAGAGGGTTTGGGTTCTAACCTGTTGCGGAG [TAGAGGGCTCC_LTGcore_TT_RTGcore_CT] (site TAGAGGGCTCC) (LTG core: TT, RTG core: CT) — within 0.2 log units, 0.949
- TCGCGACAATGGGTTCTAACCTGTTGCCGAG [TCGCGACCTCG_LTGcore_AA_RTGcore_CT] (site TCGCGACCTCG) (LTG core: AA, RTG core: CT) — lower, 0.0505
